The values below come from ChEMBL document CHEMBL1148181, “Anti-AIDS agents, 9. Suberosol, a new C31 lanostane-type triterpene and anti-HIV principle from Polyalthia suberosa” (J Nat Prod, 1993).

Converted amounts (≈) assume the structure as drawn.

The test system of assay [1] is Human immunodeficiency virus 1. Briefly: Antiviral activity against HIV1 3B in human H9 lymphocytes after 3 days by p24 antigen capture assay. The settings on record: Human immunodeficiency virus 1, 3B, 72 h. It counts as functional, organism-based.
A further assay deals with H9. Briefly: Cytotoxicity against human H9 lymphocytes. It counts as cell-based.

As for `C=C(CC[C@@H](C)[C@H]1C[C@H](O)[C@@]2(C)C3=CC[C@H]4C(C)(C)[C@@H](O)CC[C@]4(C)C3=CC[C@]12C)C(C)C` [SUBEROSOL], in assay [1], a half-maximal response (EC50) required 3 µg/mL (≈ 6.6 µM). The molecule also yielded an IC50 in the assay on H9 of 20 µg/mL (≈ 44 µM).

The term EC50 denotes the concentration that produces a half-maximal response. The low end stands for a more potent agent, the high end for a less potent agent. As a reminder, the IC50 is the midpoint of a concentration-inhibition curve. A higher IC50 goes with weaker potency in that assay.
